Read-outs that look alike come from different tables or passages of the source.
Legend:
[1] = system: symmetric di-methyl arginine in Z-138 cells; assay: Z-138 Methylation Assay (In Cell Western for symmetric di-methyl arginine and DNA content); format: cell-based; conditions: Homo sapiens, read-out: ICW EC50
Summary of the method: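 Z-138 cells (50,000 cells/mL) treated with compound 96 h at 37 °C, then fixed and stained for symmetric di-methyl arginine (800 nm) with DRAQ5 DNA counterstain (700 nm) on Licor Odyssey.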

PRMT5/MEP50 = PRMT5/MEP50 (Homo sapiens (Human), UniProt O14744); assay: PRMT5 Biochemical Assay (PRMT5/MEP50 enzyme assay on peptide substrate, 3H-SAM Flashplate)
Summary of the method: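 Radiometric methylation of a biotin-tagged H4(1-15) peptide by human PRMT5/MEP50 from baculovirus/Sf9, with ³H-SAM incorporation read on streptavidin Flashplates. Buffer: Bicine pH 7.6, TCEP, BSG, Tween20; compound preincubated 30 min at 25 °C; stopped with 600 µM final unlabeled SAM. DMSO and SAH controls; IC50 from fitted % inhibition.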

Z-138 cell line = assay: Z-138 Proliferation Assay (Cell Titer Glo, 5 days); format: cell-based; conditions: Homo sapiens, 120 h, Z-138 cells, 5 days, read-out: Proliferation EC50
Summary of the method: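 Z-138 cells exposed 5 days at 37 °C, 5% CO2 to nine-point 3-fold dilutions (final top 20 μM, 0.2% DMSO), in triplicate. Viability read as ATP by CellTiter-Glo luminescence; IC50 from 4-parameter fit of normalized dose-response curves.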

Chain of PRMT5/MEP50 (O14744 other isoform, or with tags, fused parts or gaps): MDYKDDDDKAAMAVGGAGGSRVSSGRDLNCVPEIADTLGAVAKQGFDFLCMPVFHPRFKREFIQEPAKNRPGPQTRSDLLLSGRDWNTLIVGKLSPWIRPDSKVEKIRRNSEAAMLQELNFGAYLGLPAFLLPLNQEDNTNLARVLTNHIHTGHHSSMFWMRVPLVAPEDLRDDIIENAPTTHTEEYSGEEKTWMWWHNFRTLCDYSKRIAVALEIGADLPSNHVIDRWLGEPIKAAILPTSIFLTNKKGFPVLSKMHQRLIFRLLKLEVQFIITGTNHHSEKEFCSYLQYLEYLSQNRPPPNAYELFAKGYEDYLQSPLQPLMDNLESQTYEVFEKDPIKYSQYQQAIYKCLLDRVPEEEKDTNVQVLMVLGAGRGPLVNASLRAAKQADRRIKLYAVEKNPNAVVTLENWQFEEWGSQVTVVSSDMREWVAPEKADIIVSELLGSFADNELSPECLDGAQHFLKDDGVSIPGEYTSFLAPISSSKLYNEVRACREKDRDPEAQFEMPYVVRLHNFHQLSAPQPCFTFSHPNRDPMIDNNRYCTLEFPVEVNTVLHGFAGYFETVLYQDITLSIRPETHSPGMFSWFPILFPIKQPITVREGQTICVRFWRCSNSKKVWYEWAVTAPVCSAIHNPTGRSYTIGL
Chain of PRMT5/MEP50 (Q9BQA1 other isoform, or with tags, fused parts or gaps partner): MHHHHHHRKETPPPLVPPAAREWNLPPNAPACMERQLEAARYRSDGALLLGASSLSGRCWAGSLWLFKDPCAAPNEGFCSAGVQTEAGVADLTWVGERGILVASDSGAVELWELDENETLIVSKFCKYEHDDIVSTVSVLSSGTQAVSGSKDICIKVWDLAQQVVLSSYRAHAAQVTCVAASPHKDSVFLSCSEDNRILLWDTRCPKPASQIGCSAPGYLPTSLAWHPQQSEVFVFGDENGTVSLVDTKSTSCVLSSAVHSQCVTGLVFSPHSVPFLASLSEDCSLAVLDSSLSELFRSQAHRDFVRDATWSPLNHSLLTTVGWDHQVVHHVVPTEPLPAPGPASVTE

Row | EC50 [1] | IC50 (PRMT5/MEP50) | EC50 ([1]; In Cell Western methylation) | IC50 (PRMT5/MEP50; PRMT5 biochemical assay) | SMILES | EC50 (Z-138 cell line) | EC50 (Z-138 cell line; Cell Titer Glo)
1 | < 100 nM | < 100 nM | – | – | O=C(NC[C@H](O)CN1CCc2ccccc2C1)c1ccc2[nH]nnc2c1 [Compound 305] | 101 to 1000 nM | –
2 | – | – | < 100 nM | < 100 nM | NC(=O)CN1CCC(Nc2cc(C(=O)NC[C@H](O)CN3CCc4ccccc4C3)ncn2)CC1 [Compound 532] | – | 101 to 1000 nM
3 | – | – | < 100 nM | < 100 nM | CN(C)C(=O)[C@H]1C[C@@H](Nc2cc(C(=O)NC[C@H](O)CN3CCc4ccccc4C3)ncn2)C1 [Compound 515] | – | 101 to 1000 nM
4 | – | – | 101 to 1000 nM | < 100 nM | CCc1nc(NC2CNC2)cc(C(=O)NC[C@H](O)CN2CCc3ccccc3C2)n1 [Compound 487] | – | 1000 to 10000 nM
5 | – | – | < 100 nM | < 100 nM | CC(CNC(=O)c1cc(NC2COC2)ncn1)CN1CCc2ccccc2C1 (stereo not drawn) [Compound 657] | – | > 5000 nM
6 | < 100 nM | < 100 nM | – | – | O=C(NC[C@H](O)CN1CCc2ccccc2C1)c1ccnc(OC2CCC2)c1 [Compound 350] | 101 to 1000 nM | –

More lines, now with the values behind:

Row | SMILES | EC50 [1] | IC50 (PRMT5/MEP50) | EC50 ([1]; In Cell Western methylation) | IC50 (PRMT5/MEP50; PRMT5 biochemical assay) | EC50 (Z-138 cell line) | EC50 (Z-138 cell line; Cell Titer Glo)
7 | CC(=O)N1CC(Nc2cc(C(=O)NC[C@H](O)CN3CCc4cccc(C)c4C3)ncn2)C1 [Compound 663] | – | – | < 100 nM | < 100 nM | – | 101 to 1000 nM
8 | CC(=O)N1CCC(Nc2cc(C(=O)NC[C@H](O)CN3CCc4ccccc4C3)nc(N3CCN(C)CC3)c2)CC1 [Compound 684] | – | – | < 100 nM | < 100 nM | – | 101 to 1000 nM
9 | CN(C)CCN(C)c1nc(NC2COC2)cc(C(=O)NC[C@H](O)CN2CCc3ccccc3C2)n1 [Compound 525] | – | – | < 100 nM | < 100 nM | – | 101 to 1000 nM
10 | O=C(NC[C@H](O)CN1CCc2ccccc2C1)c1cnnc(OC2CCNCC2)c1 [Compound 619] | – | – | 101 to 1000 nM | < 100 nM | – | 10000 to 50000 nM
11 | CCOc1nc(NC2CNC2)cc(C(=O)NC[C@H](O)CN2CCc3ccccc3C2)n1 [Compound 486] | – | – | 101 to 1000 nM | < 100 nM | – | 1000 to 10000 nM
12 | Cc1nc(NC2COC2)cc(C(=O)NC[C@H](O)CN2CCc3ccccc3C2)n1 [Compound 399] | – | – | < 100 nM | < 100 nM | – | 1000 to 10000 nM
13 | O=C(NC[C@H](O)CN1CCc2ccccc2C1)c1cc(N[C@H]2CC[C@@H](O)CC2)ncn1 [Compound 592] | – | – | < 100 nM | < 100 nM | – | 101 to 1000 nM
14 | O=C(NC[C@H](O)CN1CCc2ccccc2C1)c1cc(NC2CCN(C(=O)C3CCC3)CC2)ncn1 [Compound 419] | – | – | < 100 nM | < 100 nM | – | < 100 nM
15 | CC(=O)N1CC(Nc2cc(C(=O)NC[C@H](O)CN3CCc4ccccc4C3)nc(C(C)(C)C)n2)C1 [Compound 546] | – | – | < 100 nM | < 100 nM | – | < 100 nM
16 | CO[C@H]1C[C@@H](Nc2cc(C(=O)NC[C@H](O)CN3CCc4ccccc4C3)ncn2)C1 [Compound 563] | – | – | < 100 nM | < 100 nM | – | 101 to 1000 nM
17 | CCS(=O)(=O)CCNc1cc(C(=O)NC[C@H](O)CN2CCc3ccccc3C2)ncn1 [Compound 641] | – | – | < 100 nM | < 100 nM | – | 1000 to 10000 nM
18 | O=C(NCCCN1CCc2ccccc2C1)c1cc(NC2COC2)ncn1 [Compound 651] | – | – | > 1000 nM | 101 to 1000 nM | – | > 5000 nM
